What was measured:
hairless mice = assay: Example 2: skin irritation and weight loss by oral agonist, topical antagonist; format: in vivo
Description: Mice were simultaneously treated topically on the dorsal skin with vehicle (97.6% acetone/2.4% dimethylsulfoxide) or solutions of AGN 193109 in vehicle (6 ml/kg). Specific doses for the different treatment groups are give in Table 8. Treatments were administered daily for 4 consecutive days. Mice were weighed and graded for topical irritation daily as described in Example 1 up to and including 1 day after the last treatment. Percent body weight change is calculated by subtracting […], dividing by initial body weight, and multiplying by 100%. Topical irritation scores are calculated as described in Example 1.

RARγ [1] = molecular target: T1, RARγ (Homo sapiens, UniProt P13631); assay: Example 7: inhibition of RAR transactivation by ATRA, CV-1 cells; format: cell-based; conditions: equal doses of AGN 193109 and ATRA (10 nM ATRA)
T1 sequence (P13631 1-454): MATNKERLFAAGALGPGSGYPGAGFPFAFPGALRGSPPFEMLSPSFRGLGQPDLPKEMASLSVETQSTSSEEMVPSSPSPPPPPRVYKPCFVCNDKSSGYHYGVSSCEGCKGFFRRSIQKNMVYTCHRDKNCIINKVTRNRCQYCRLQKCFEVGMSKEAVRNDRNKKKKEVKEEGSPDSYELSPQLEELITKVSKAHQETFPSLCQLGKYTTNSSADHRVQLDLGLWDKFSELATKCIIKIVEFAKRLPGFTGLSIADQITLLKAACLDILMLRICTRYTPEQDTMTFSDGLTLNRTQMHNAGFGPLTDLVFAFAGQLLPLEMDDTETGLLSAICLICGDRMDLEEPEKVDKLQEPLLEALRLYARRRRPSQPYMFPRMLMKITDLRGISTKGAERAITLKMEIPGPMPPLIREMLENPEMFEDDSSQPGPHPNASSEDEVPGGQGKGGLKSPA

ER-RAR-α = assay: Example 10: repression of basal gene activity, ERE-tk-Luc, CV-1 cells; format: cell-based; conditions: 10^−9 to 10^−6 M, 18 hours, single agent
Source text: (§1) More specifically, these procedures employed the ER-RAR chimeric receptor and ERE-tk-Luc reporter system. The ERE-tk-Luc plasmid includes the region −397 to −87 of the estrogen responsive 5′-flanking region of the Xenopus vitellogenin A2 gene, described by Klein-Hitpass, et al. in Cell 46:1053-1061 (1986), ligated upstream of the HSV thymidine kinase promoter and luciferase reporter gene of plasmid tk-Luc. The ER-RAR chimeric receptors consisted of the estrogen receptor DNA binding domain fused to the “D-E-F” domain of the RARs. Those having ordinary skill in the art appreciate this “D-E-F” domain functions to bind retinoid, to provide a retinoid inducible transactivation function and to provide a contact site for heterodimerization with RXR. Thus, luciferase expression in this reporter system was dependent on activation of the transfected chimeric receptor construct.
(§2) CV-1 cells were co-transfected with the ERE-tk-Luc reporter plasmid and either ER-RAR-α, ER-RAR-β or ER-RAR-γ expression plasmids. The ERE-tk-Luc plasmid contained the estrogen-responsive promoter element of the Xenopus laevis vitellogenin A2 gene and was substantially identical to the reporter plasmid described by Klein-Hitpass et al. in Cell 46:1053 (1986), except that the CAT reporter gene was substituted by a polynucleotide sequence encoding luciferase. The ER-RAR-α, ER-RARβ and ER-RAR-γ chimeric receptor-encoding polynucleotides employed in the co-transfection have been described by Graupner et al. in Biochem. Biophys. Res. Comm. 179:1554 (1991). […] Calcium phosphate transfections were carried out exactly as described in Example 6 using 0.5 μg/well of reporter plasmid and either 0.05 μg, 0.10 μg or 0.2 μg/well of receptor plasmid. […] Cell lysates and luciferase activity measurements were performed as described in Example 6.

ER-RAR-β = assay: as above; format: cell-based; conditions: 10^−9 to 10^−6 M, 18 hours, single agent
Source text: as §1, §2

ER-RAR-γ = assay: as above; format: cell-based; conditions: 10^−9 to 10^−6 M, 18 hours, single agent
Source text: as §1, §2

RAR-γ-VP-16 = RAR-γ-VP-16 activity at the ΔMTV-TREp-Luc reporter; format: cell-based
Source text: We have also obtained results which support conclusions identical to those presented under Example 11 by employing RAR-γ-VP-16 and expression constructs and the ΔMTV-TREp-Luc reporter plasmid instead of the RAR-γ-VP-16 and ER-RXR-α expression constructs in combination with the ERE-tk-Luc reporter plasmid. […] Therefore, AGN 193109 repressed RAR-γ-VP-16 activity when this chimeric receptor was directly bound to a retinoic acid receptor response element instead of indirectly bound to an estrogen response element in the promoter region of the reporter plasmid. […] Instead, the critical feature embodied by an experimental system useful for identifying retinoid negative hormones involves detecting the ability of a compound to repress the activity of an RAR engineered to contain a constitutive transcription activation domain.

[2] = system: tissue transglutaminase (TGase) gene in HL-60 cells; assay: TGase activity in HL-60 cells; format: cell-based; conditions: TGase induced by RXR agonists
Source text: This same mechanism can account for the observation that AGN 193109 can repress the activity of the tissue transglutaminase (TGase) gene in HL-60 cells. A retinoid response element consisting of three canonical retinoid half sites spaced by 5 and 7 base pairs has been identified in the transcription control region of this gene. While TGase can be induced by RXR-selective agonists, it is not responsive to RAR-selective agonists. The TGase retinoid response element is bound by an RAR/RXR heterodimer (Davies et al. in Press). […] This AGN 193109 mediated repression can be accounted for by the ability of this negative hormone to sequester NCPs to the RAR component of the heterodimer, thereby repressing the activity of the associated RXR.

[3] = system: TPA-induced AP-1 activity; assay: Example 15: anti-AP-1 activity, Str-AP1-CAT in HeLa cells; format: cell-based
Description: HeLa cells were transfected with 1 μg of Str-AP1-CAT using LIPOFECTAMINE according to the method described by Nagpal et al. in J. Biol. Chem. 270:923 (1995). Transfected cells were treated with AGN 193109 alone (10^−9 to 10^−7 M), 1,25-dihydroxyvitamin D3 alone (10^−12 to 10^−7 M) or 1,25-dihydroxyvitamin D3 (10^−12 to 10^−7 M) in the presence of 10^−8 M AGN 193109.

RARγ [4] = molecular target: T1, RARγ; assay: Example 16: transactivation, MTV-TREp-Luc in HeLa cells; format: cell-based
[5] = group E: topical AGN 193109 0.47 mg/kg/d alone

`Cc1ccc(C2=CCC(C)(C)c3ccc(C#Cc4ccc(C(=O)O)cc4)cc32)cc1` [Compound 60, 4-[(5,6-dihydro-5,5-dimethyl-8-(4-methylphenyl)-2-naphthalenyl)ethynyl]benzoic acid] was tested, and the “Topical Irritation Score” value (hairless mice; group C: topical AGN 193109 […] + oral AGN 191183 0.26 mg/kg/d) was 1 ± 1, the “% Weight Gain or (Loss)” value (hairless mice; group C: topical AGN 193109 […] + oral AGN 191183 0.26 mg/kg/d, parentheses = loss) was “(9 ± 5) %” and the “Topical Irritation Score” value (hairless mice; group D: topical AGN 193109 0.47 mg/kg/d + oral AGN 191183 0.26 mg/kg/d) was 0 ± 1. For the same compound, the “% Weight Gain or (Loss)” value (hairless mice; group D: topical AGN 193109 0.47 mg/kg/d + oral AGN 191183 0.26 mg/kg/d, parentheses = loss) was “(3 ± 5) %”, the “% Weight Gain or (Loss)” value (hairless mice; [5]) was 3 ± 3% and the “Topical Irritation Score” value (hairless mice; [5]) was 0 ± 0. The “inhibition of luciferase activity relative to ATRA alone” value (RARγ [1]) was “greater than 50%”, the luciferase reporter activity (ER-RAR-α) was “substantially unaffected” and the luciferase reporter activity (ER-RAR-β) was “dose responsive decrease in luciferase reporter activity”. For the same compound, the luciferase reporter activity (ER-RAR-γ) was “dose responsive decrease in luciferase reporter activity”, the “RAR-γ-VP-16 activity at the ΔMTV-TREp-Luc reporter” value (RAR-γ-VP-16) was “inhibited” and the TGase activity [2] was “able to repress TGase activity induced by RXR agonists”. The anti-AP-1 activity ([3]; AGN 193109 alone, 10^−9 to 10^−7 M) was “no detectable anti-AP-1 activity”, the “anti-AP-1 activity of 1,25-dihydroxyvitamin D3” value ([3]; in the presence of 10^−8 M AGN 193109) was “anti-AP-1 activity was detectable at 10^−10 and 10^−9 M 1,25-dihydroxyvitamin D3” and the “inhibition of the response to 10^−9 M AGN 191183” value (RARγ [4]; 10^−9 M AGN 193109, HeLa cells, preliminary experiments) was “relatively ineffective”. For the same compound, the luciferase activity (RARγ [4]; AGN 193109 10^−11 and 10^−10 M with AGN 191183 10^−10 or 10^−9 M) was “stimulation of luciferase activity over that of AGN 191183 alone”.

Source: patent US6469028B1, “Synthesis and use of retinoid compounds having negative hormone and/or anatgonist activities” (Allergan, Inc., priority 1995, dated 2002)
